The values that follow come from patent US10072304B2, “Nuclear localization of Src-family tyrosine kinases is required for growth factor-induced euchromatinization” (National University Corporation Chiba University, priority 2009, dated 2018).

This assay has as its system COS-1 cells. Briefly: Quantitation of chromatin condensation levels (S.D. value of PI intensity per pixel) in COS-1 cells. The assay is classed as cell-based, monkey. Here is the method: COS-1, HeLa cells (Japanese Collection of Research Bioresources, Osaka), MCF-7 (provided by H. Saya), A431 (provided by M. N. Fukuda), HEK293 (provided by […]), HCT116 (provided by T. Tomonaga), and SYF ([37]; provided by M. Okada and S. Nada) cells were cultured in Iscove's modified DME containing 5% fetal bovine serum (FBS). Cells were transiently transfected with 0.5 μg of plasmid vector using Trans IT Transfection reagent (Mirus) or with 1 μg of plasmid vector using linear polyethylenimine (25 kDa) (Polyscience, Inc.). For growth factor stimulation, COS-1 cells were starved under low serum conditions (0.05% FBS) for 24 h and restimulated with serum (5% FBS). For stimulation of endogenous SFKs, cells were treated with 3 mM Na3VO4 for 3 h, and SFK-mediated tyrosine phosphorylation was verified by treatment with 10 μM PP2 (SFK inhibitor; Calbiochem) or 100 nM wortmannin (PI3K inhibitor; Alomone Labs) for 21 h before Na3VO4 treatment. Na3VO4 was dissolved at 500 mM in 500 mM unbuffered HEPES before use. For preparation of stable transfectant clones, SYF cells transfected with c-Src-wt or Lyn-wt were selected in 333 μg/mL Zeocin (Invitrogen), and COS-1 cells were transfected with the BOSH2BGFP-N1 vector, which encodes GFP-tagged histone H2B ([39,40]; provided by H. Saya), were selected in 3 μg/mL blasticidin. Confocal and Nomarski differential-interference-contrast images were obtained using a Fluoview FV500 confocal laser scanning microscope with a 40×1.00 NA oil and a 100×1.35 NA oil immersion objective (Olympus, Tokyo) and an LSM 510 confocal laser scanning microscope with a 63×1.40 NA oil immersion objective (Zeiss), as described. One planar (xy) section slice (0.6-μm thickness) is shown in all experiments. In brief, cells were fixed with 4% paraformaldehyde for 20 min, and permeabilized in phosphate-buffered saline (PBS) containing 0.1% saponin and 3% bovine serum albumin at room temperature. Cells were subsequently reacted with an appropriate primary antibody for 1 h, washed with PBS containing 0.1% saponin, stained with FITC- or TRITC-conjugated secondary antibody for 1 h. […] To ensure no bleed-through from the fluorescein signal into the red channel, fluorescein and rhodamine were independently excited at 488 nm and 543 nm, respectively. PI was excited at 488 or 543 nm. Emission signals were detected between 505 and 525 nm for fluorescein, at more than 560 nm for rhodamine and more than 610 nm for PI [44]. Composite figures were prepared using Photoshop 5.0 and Illustrator 9.0 software (Adobe). For nuclear staining with anti-pTyr, anti-ATF-2 […]/71, and anti-histone H3K4me3 antibodies, cells were in situ extracted with 0.5% Triton X-100 at 4° C. for 3 min before fixation with 4% paraformaldehyde. For HP1α staining, cells were fixed in 100% methanol at -20° C. for 10 min followed by permeabilization for 30 min in PBS containing 0.1% Triton X-100 at room temperature. Cells were reacted with anti-HP1α antibody for 1 h at room temperature, washed with PBS four times, and stained with secondary antibody for 1 h. Fluorescence intensity plots of anti-histone H3K4me3, anti-ATF-2 […]/71 and anti-HP1α antibody and PI staining (see FIGS. 18B, 19B, and 20B, respectively) were generated using Fluoview version 4.3 software (Olympus, Tokyo). For detection of the kinase activity of nuclear SFKs, purified nuclei suspended in kinase buffer (50 mM HEPES-NaOH, pH7.4, 5 mM MgCl2, 5 mM MnCl2 and 0.1 mM Na3VO4) were preincubated with or without 10 μM PP2 at 30° C. for 30 min, and subsequently incubated with 5 or 10 μM ATP at 30° C. for 30 min, followed by cytocentrifugation at 200×g for 5 min and fixation with 4% paraformaldehyde. DNA was stained with 20 μg/mL PI and 200 μg/mL RNase A for 30 min. Mean fluorescence intensity of tyrosine-phosphorylated proteins in the nucleus was measured using the ImageJ software (National Institutes of Health). Confocal images of PI-stained nuclei were obtained as described above. […]

As to `[Na+].[Na+].[Na+].[O]=[V]([O-])([O-])[O-]` [Na3VO4, sodium orthovanadate], the “hypo- and hypercondensed chromatin states” value (COS-1, 3 mM Na3VO4 for 3 h, FIGS. 23 and 26) was “induced drastic changes”.
`CC(C)(C)n1nc(-c2ccc(Cl)cc2)c2c(N)ncnc21` [PP2]: under “COS-1, 10 μM PP2 or 100 nM wortmannin for 24 h, FIGS. 22 and 26”, the “basal levels of chromatin condensation” value was “significantly reduce”. Further, the “chromatin hypo- and hypercondensation in Na3VO4-treated cells” value (COS-1, 10 μM PP2 pretreatment 21 h, then 3 mM Na3VO4 3 h, FIGS. 23 and 26) was “decrease”. Besides, the “serum-stimulated chromatin hypo- and hypercondensation” value (COS-1 starved 24 h (0.05% FBS), stimulated with 5% FBS in presence of 10 μM PP2, FIG. 16) is on record as “significantly inhibited”. The “hyperosmotic stress-induced chromatin structural changes” value (cells not specified, hyperosmolar conditions, data not shown) is on record as “did not inhibit”.
